6 molecules from US20240400591A1 (Jacobio Pharmaceuticals Co., Ltd., priority 2021, published 2024) can be followed below.

Each structure is given as a SMILES string. Where two headings read alike, the source gives them in different places.

Assay [1] has as its target T1, His-p53 Y220C (94-294) protein (Homo sapiens, UniProt P04637, Y220C).
T1 construct: His-p53 Y220C (94-294) protein
Briefly: In vitro DNA binding assay (HTRF). The conditions noted are these: % activation normalized to 2 μM Ref-1a high control. It counts as biochemical. For orientation: Time-resolved FRET reads energy transfer from a long-lived donor to a nearby acceptor.

The next assay relates to NUGC3 (P53 Y220C). In words: Cell viability assay (CellTiter-Glo, 6 days), NUGC3. The class given is cell-based. Particulars: Homo sapiens, NUGC-3, 144 h; cell viability, 6 days, CellTiter-Glo; read-out: NUGC3 (P53 Y220C) IC50. In outline:
(§1)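 After a 6-day compound exposure following overnight plating, ATP luminescence (CellTiter-Glo) gave percent viability relative to DMSO-treated cells and cell-free medium controls. IC50 = concentration at 50% viability, from 4-parameter logistic or Excel fit.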
(In general: In ATP-based viability assays light output follows the ATP content of the culture.)

Another assay concerns NUGC4 (P53 WT). Briefly: Cell viability assay (CellTiter-Glo, 6 days), NUGC4. The conditions noted are these: Homo sapiens, NUGC-4, 144 h; cell viability, 6 days, CellTiter-Glo; read-out: NUGC4 (P53 WT) IC50. The class given is cell-based. In outline:
as §1

Assay [2] has as its system NUGC-3_P53_Luc single clonal cell line (p53 Y220C). In words: Reporter gene assay (p53 RE luciferase). The class given is cell-based. The conditions noted are these: Homo sapiens, luciferase reporter, 6 hours, normalized to Ref-1a (10 μM) high control, read-out: p53(Y220C)_NUGC-3 EC50. In outline:
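Luminescence normalised to DMSO-only (0%) and 10 μM Ref-1a (100%) wells gives % activity, fitted by 4-parameter logistic or Excel to yield EC50 at 50%. Reporter line: NUGC-3 with p53 response element-luc2P, compound-treated 6 h at 37 °C.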
For orientation: Reporter assays use an easily measured gene product as a stand-in for the process of interest.

What is called EC50 is the concentration at which the effect is half-maximal. One may read the IC50 as the concentration that gives 50% inhibition. Consider `COc1cc(P(C)(C)=O)ccc1NCC#Cc1sc2c(N[C@@H]3CCN(C)C[C@@H]3F)cccc2c1CC(F)(F)F` [Example 115, (4-((3-(7-(((3S,4R)-3-fluoro-1-methylpiperidin-4-yl)amino)-3-(2,2,2-trifluoroethyl)benzo[b]thiophen-2-yl)prop-2-yn-1-yl)amino)-3-methoxyphenyl)dimethylphosphine oxide], for which the concentration for a half-maximal effect (EC50) was 23 nM in assay [1] and 30 nM in assay [2] (NUGC-3, 6 h). For the same molecule, the IC50 in the assay with NUGC3 (P53 Y220C) came to 240 nM; with NUGC4 (P53 WT), 8580 nM.

Take `COc1cc(P(C)(C)=O)ccc1NCC#Cc1sc2c(NC3CCN(CCCF)CC3)cccc2c1CC(F)(F)F` [Example 205, (4-((3-(7-((1-(3-fluoropropyl)piperidin-4-yl)amino)-3-(2,2,2-trifluoroethyl)benzo[b]thiophen-2-yl)prop-2-yn-1-yl)amino)-3-methoxyphenyl)dimethylphosphine oxide]: the EC50 in assay [1] is 65 nM; in assay [2] (NUGC-3) it was 550 nM. For the same molecule, the results for the IC50 in the assay on NUGC3 (P53 Y220C) and in the assay on NUGC4 (P53 WT) were 1320 nM and 4100 nM, respectively.

As for `CP(C)(=O)c1ccc(NCC#Cc2sc3c(N[C@@H]4CCN(C5CCOCC5)C[C@@H]4F)cccc3c2CC(F)(F)F)c(OC2CC2)c1` [Example 161, (3-cyclopropoxy-4-((3-(7-(((3S,4R)-3-fluoro-1-(tetrahydro-2H-pyran-4-yl)piperidin-4-yl)amino)-3-(2,2,2-trifluoroethyl)benzo[b]thiophen-2-yl)prop-2-yn-1-yl)amino)phenyl)dimethylphosphine oxide], the results for the concentration giving a half-maximal response (EC50) in assay [1] and in assay [2] (NUGC-3) were 73 nM and 120 nM, respectively. The 50% inhibitory concentration (IC50) with NUGC3 (P53 Y220C) was found to be 1150 nM; with NUGC4 (P53 WT) it was 12900 nM.

As for `COc1cc(N2CCOCC2=O)ccc1NCC#Cc1sc2c(NC3CCN(C)CC3F)cccc2c1CC(F)(F)F` (stereo not drawn) [Example 192, 4-(4-((3-(7-((3-fluoro-1-methylpiperidin-4-yl)amino)-3-(2,2,2-trifluoroethyl)benzo[b]thiophen-2-yl)prop-2-yn-1-yl)amino)-3-methoxyphenyl)morpholin-3-one], the EC50 in assay [1] stood at 34 nM; in assay [2] (NUGC-3), 130 nM. Besides, the IC50 in the assay with NUGC3 (P53 Y220C) was 1190 nM; with NUGC4 (P53 WT), 7610 nM.

`COc1cc(P(C)(C)=O)ccc1NCC#Cc1sc2c(N[C@@H]3CCN(C)C[C@@H]3C)cccc2c1CC(F)(F)F` [Example 126, (4-((3-(7-(((3S,4R)-1,3-dimethylpiperidin-4-yl)amino)-3-(2,2,2-trifluoroethyl)benzo[b]thiophen-2-yl)prop-2-yn-1-yl)amino)-3-methoxyphenyl)dimethylphosphine oxide]: the EC50 in assay [1] worked out at 36 nM; in assay [2] (NUGC-3, 6 h), 80 nM. The results for the 50% inhibitory concentration (IC50) in the assay with NUGC3 (P53 Y220C) and in the assay on NUGC4 (P53 WT) were 630 nM and 2740 nM, respectively.

Regarding `COc1cc(P(C)(C)=O)ccc1NCC#Cc1sc2c(N[C@@H]3CCN(C4CCCC4)C[C@@H]3F)cccc2c1CC(F)(F)F` (relative stereo) [Example 104, (4-((3-(7-(((Z)-1-cyclopentyl-3-fluoropiperidin-4-yl)amino)-3-(2,2,2-trifluoroethyl)benzo[b]thiophen-2-yl)prop-2-yn-1-yl)amino)-3-methoxyphenyl)dimethylphosphine oxide], the EC50 was determined as 82 nM in assay [1] and 240 nM in assay [2] (NUGC-3). In addition, the IC50 stood at 1380 nM in the assay with NUGC3 (P53 Y220C) and 1750 nM with NUGC4 (P53 WT).
